Test results reported in patent US11261201B2 (priority 2018, dated 2022).
≈ marks a conversion by molar mass, not a printed value. Counter-ions that a name gives are not always drawn. Like-named read-outs stand apart in the source and are kept apart here.

Experiments:
E. coli = test: Gram negative MIC protocol (OD600, LB, 24 h); conditions: for MIC: Escherichia coli
Description: (§1) Overnight bacterial cultures were grown in LB with no added antibiotics at 37° C. with shaking. A 1:1000 dilution of these cultures into LB was exposed to concentration gradients of compounds in 96-well plates (100 μL per well assay volume). Resulting plates were incubated at 37° C. for 24 h without shaking, and OD600 was measured at the end of the incubation. MICs were determined as the lowest concentrations at which OD600 remained at baseline.

A. baumannii = test: Gram negative MIC protocol (OD600, LB, 24 h); conditions: for MIC: Acinetobacter baumannii, read-out: MIC A. baumannii LB Media, A. baumannii, LB media, 24 h, OD600
Description: as §1

H37RvMA = test: Tuberculosis Alamar Blue/Resazurin assay (MIC); assay type: cell-based; conditions: read-out: WT H37Rv MTB Activity
[1] = read-out: MIC E. coli delta-TolC LB Media, E. coli delta-TolC, LB media, OD600
[2] = read-out: MIC WT E. coli LB Media, WT E. coli, LB media, OD600
[3] = Mycobacterium tuberculosis, H37RV, WT H37Rv MTB
[4] = read-out: MIC E. coli delta-TolC LB Media, E. coli delta-TolC strain, LB media, 24 h, OD600
[5] = read-out: MIC WT E. coli LB Media, wild-type E. coli, LB media, 24 h, OD600

SMILES	MIC (E. coli; [1]) [µM]	MIC (E. coli; [2]) [µM]	MIC (A. baumannii) [µM]	MIC (H37RvMA; [3]) [µM]	MIC (E. coli; [4]) [µM]	MIC (E. coli; [5]) [µM]	also measured
COC1CCCCC1CCNCc1ccccc1 (stereo not shown) [B190]	> 300	> 300	> 300	> 150			
CC(NCc1ccccc1)C1[C@H]2C[C@@H]3C[C@@H](C[C@H]1C3)C2 (stereo partly shown) [B191]	300 (≈ 80.8 µg/mL)	> 300	300 (≈ 80.8 µg/mL)	> 150			
c1ccc(CNCCc2cccc3ccccc23)cc1 [B192]	96 (≈ 25.1 µg/mL)	300 (≈ 78.4 µg/mL)	300 (≈ 78.4 µg/mL)	33 (≈ 8.63 µg/mL)			
OC(CNCc1ccccc1)c1cccc2ccccc12 (stereo not shown) [B193]	300 (≈ 83.2 µg/mL)	> 300	300 (≈ 83.2 µg/mL)	150 (≈ 41.6 µg/mL)			
CC(Cc1ccc2ccccc2c1)NCc1ccccc1 (stereo not shown) [B194]							MIC E. coli delta-TolC LB Media (E. coli; E. coli delta-TolC, LB media, OD600): 170 µM (≈ 46.8 µg/mL); MIC WT E. coli LB Media (E. coli; WT E. coli, LB media, OD600): >300 µM; MIC A. baumannii LB Media (A. baumannii; A. baumannii, LB media, OD600): 300 µM (≈ 82.6 µg/mL); MIC (H37RvMA): 150 µM (≈ 41.3 µg/mL)
c1ccc(CNC2CCc3cccc4cccc2c34)cc1 (stereo not shown) [B195]	300 (≈ 82 µg/mL)	> 300	> 300	> 150			
C[C@@H](NCc1ccccc1)C12CC3CC(CC(C3)C1)C2 [B196]	300 (≈ 80.8 µg/mL)	> 300	> 300	55 (≈ 14.8 µg/mL)			
C[C@H](NCc1ccccc1)C12CC3CC(CC(C3)C1)C2 [B197]	96 (≈ 25.9 µg/mL)	170 (≈ 45.8 µg/mL)	300 (≈ 80.8 µg/mL)	> 150			
c1ccc(CNCCC23CC4CC(CC(C4)C2)C3)cc1 [B198]			170 (≈ 45.8 µg/mL)		170 (≈ 45.8 µg/mL)	> 300	MIC (H37RvMA; WT H37Rv MTB): 91 µM (≈ 24.5 µg/mL)
COc1ccc2cccc(CCNCc3ccccc3)c2c1 [B199]			170 (≈ 49.5 µg/mL)	150 (≈ 43.7 µg/mL)	170 (≈ 49.5 µg/mL)	> 300	
COc1ccc2ccccc2c1CCNCc1ccccc1 [B200]			300 (≈ 87.4 µg/mL)	91 (≈ 26.5 µg/mL)	170 (≈ 49.5 µg/mL)	> 300	
COc1ccc(CC(C)NCc2ccccc2)c2ccccc12 (stereo not shown) [B201]			170 (≈ 51.9 µg/mL)		96 (≈ 29.3 µg/mL)	> 300	MIC (H37RvMA; Mycobacterium tuberculosis, H37RV): 91 µM (≈ 27.8 µg/mL)
COCC(CC1CCCCC1)NCc1ccccc1 (stereo not shown) [B202, N-benzyl-1-cyclohexyl-3-methoxypropan-2-amine hydrochloride]			> 300	> 150	> 300	> 300	
COC(=O)C(CC1CCCCC1)NCc1ccccc1 (stereo not shown) [B203, methyl 2-(benzylamino)-3-cyclohexylpropanoate hydrochloride]			> 300	> 150	170	> 300	
O=C(O)C(CC1CCCCC1)NCc1ccccc1 (stereo not shown) [B204, 2-(benzylamino)-3-cyclohexylpropanoic acid]			> 300		> 300	> 300	MIC (H37RvMA; WT H37Rv MTB): >150 µM
NC(=O)C(CC1CCCCC1)NCc1ccccc1 (stereo not shown) [B205, 2-(benzylamino)-3-cyclohexylpropanamide hydrochloride]			> 300	> 150	> 300	> 300	
c1ccc(CNC2Cc3ccccc3C2)cc1 [B206, N-benzyl-2,3-dihydro-1H-inden-2-amine hydrochloride]			> 300	> 150	> 300	> 300	
Fc1ccc2c(c1)[C@@H](NCc1ccccc1)CC2 [B208, hydrochloride]			> 300	> 150	> 300	> 300	
COc1ccc2c(c1)[C@@H](NCc1ccccc1)CC2 [B209, (S)-N-benzyl-6-methoxy-2,3-dihydro-1H-inden-1-amine hydrochloride]			> 300	> 150	> 300	> 300	
CC(C)(C)OC(=O)N(Cc1ccccc1)C(C=O)CC1CCCCC1 (stereo not shown) [B210, tert-butyl benzyl(1-cyclohexyl-3-oxopropan-2-yl)carbamate]			> 300	> 150	> 300	> 300	
FC1(F)CCC(CCNCc2ccccc2)CC1 [B212, N-benzyl-2-(4,4-difluorocyclohexyl)ethanamine hydrochloride]			> 300	> 150	> 300	> 300	
c1ccc(CNCC2CCc3ccccc32)cc1 (stereo not shown) [B213, N-benzyl-1-(2,3-dihydro-1H-inden-1-yl)methanamine hydrochloride]			> 300	> 150	> 300	> 300	
